In patent US9556165B2 (priority 2012, dated 2017):
Values after ≈ are worked out from the molar mass of the structure shown. Like-named read-outs stand apart in the source and are kept apart here.

How the values were obtained:
Format in all cases: cell-based
[1] = test system: S. aureus 133; assay: MIC determination, broth microdilution (CLSI)
[2] = test system: M. morganii 126/3048; assay: MIC determination, broth microdilution (CLSI); details: Morganella morganii, 126/3048, strain 5
[3] = test system: B. fragilis 6688; assay: MIC determination, broth microdilution (CLSI); details: Bacteroides fragilis, 6688, strain 15; broth microdilution; read-out: MIC strain 15 (B. fragilis 6688)
[4] = test system: P. aeruginosa 2297-con (AmpC derepressed); assay: MIC determination, broth microdilution (CLSI); details: Pseudomonas aeruginosa, read-out: strain 8 MIC, strain 8
[5] = test system: C. freundii K21/3034; assay: MIC determination, broth microdilution (CLSI); details: Citrobacter freundii, K21/3034, strain 4
[6] = test system: K. pneumoniae 60; assay: MIC determination, broth microdilution (CLSI); details: Klebsiella pneumoniae, 60, strain 2
[7] = test system: E. coli J62; assay: MIC determination, broth microdilution (CLSI); details: Escherichia coli, J62, strain 17; broth microdilution; read-out: MIC strain 17 (E. coli J62)
[8] = test system: S. pneumoniae 113; assay: MIC determination, broth microdilution (CLSI); details: Streptococcus pneumoniae, 113, strain 13; broth microdilution; read-out: MIC strain 13 (S. pneumoniae 113)
[9] = test system: E. cloacae 34654; assay: MIC determination, broth microdilution (CLSI); details: Enterobacter cloacae, 34654, strain 3
[10] = test system: E. coli ATCC25922; assay: MIC determination, broth microdilution (CLSI); details: Escherichia coli, ATCC25922, strain 1
[11] = test system: P. aeruginosa PAO1; assay: MIC determination, broth microdilution (CLSI); details: Pseudomonas aeruginosa, PAO1, strain 6
[12] = test system: Bacteria; assay: MIC determination in combination with β-lactamase inhibitors (constant 4 μg/mL)
[13] = test system: A. baumannii ATCC15308; assay: MIC determination, broth microdilution (CLSI); details: Acinetobacter baumannii, ATCC15308, strain 9
[14] = test system: P. aeruginosa 2297 (AmpC wt); assay: MIC determination, broth microdilution (CLSI); details: Pseudomonas aeruginosa, strain 7
[15] = test system: H. influenzae ATCC 49247; assay: MIC determination, broth microdilution (CLSI); details: Haemophilus influenzae, ATCC49247, strain 12; broth microdilution; read-out: MIC strain 12 (H. influenzae ATCC 49247)
[16] = test system: E. coli J62-TEM-3; assay: MIC determination, broth microdilution (CLSI); details: Escherichia coli, J62TEM3, read-out: MIC strain 18 (E. coli J62-TEM-3), strain 18; broth microdilution
[17] = Staphylococcus aureus, 133, strain 11, read-out: strain 11 MIC
[18] = Staphylococcus aureus, 133, strain 14, broth microdilution, read-out: MIC strain 14 (S. aureus 133)

SMILES | MIC [1, 17] [µg/mL] | MIC [1, 18] [µg/mL] | MIC [2] [µg/mL] | MIC [3] [µg/mL] | MIC [4] [µg/mL] | MIC [5] [µg/mL] | MIC [6] [µg/mL] | MIC [7] [µg/mL] | MIC [8] [µg/mL] | MIC [9] [µg/mL] | MIC [10] [µg/mL] | MIC [11] [µg/mL] | MIC strain 19 (E. coli J62-TEM-3 + 4 μg/mL clavulanic acid) [12] [µg/mL] | MIC strain 20 (E. coli J62-TEM-3 + 4 μg/mL sulbactam) [12] [µg/mL] | MIC strain 21 (E. coli J62-TEM-3 + 4 μg/mL tazobactam) [12] [µg/mL] | MIC [13] [µg/mL] | MIC [14] [µg/mL] | MIC [15] [µg/mL] | MIC [16] [µg/mL]
C[C@@H]1[C@H](NC(=O)/C(=N\OCCCOc2ccc(C(=N)N)cc2)c2csc(N)n2)C(=O)N1S(=O)(=O)O [Example 48, (2R,3S)-3-{[(2Z)-2-(2-Amino-1,3-thiazol-4-yl)-2-{[3-(4-carbamimidoylphenoxy)propoxy]imino}acetyl]amino}-2-methyl-4-oxoazetidine-1-sulfonic acid] | 0.5 (≈ 0.951 µM) | 4 (≈ 7.61 µM) | 1 (≈ 1.9 µM) | 16 (≈ 30.4 µM) | 32 (≈ 60.9 µM) | 2 (≈ 3.81 µM) | 4 (≈ 7.61 µM) | 2 (≈ 3.81 µM) | 1 (≈ 1.9 µM) | 4 (≈ 7.61 µM) | 2 (≈ 3.81 µM) | 8 (≈ 15.2 µM) | 2 | 2 | 2 | 8 (≈ 15.2 µM) | 16 (≈ 30.4 µM) | 0.5 (≈ 0.951 µM) | 
C[C@H]1[C@H](NC(=O)/C(=N\OCCOc2ccc(C(=N)N)cc2Br)c2csc(N)n2)C(=O)N1S(=O)(=O)O [Example 49, (2S,3S)-3-{[(2Z)-2-(2-Amino-1,3-thiazol-4-yl)-2-{[2-(2-bromo-4-carbamimidoyl-phenoxy)ethoxy]imino}acetyl]amino}-2-methyl-4-oxoazetidine-1-sulfonic acid] | 0.125 (≈ 0.212 µM) | 16 (≈ 27.1 µM) | 2 (≈ 3.39 µM) | 16 (≈ 27.1 µM) | 32 (≈ 54.2 µM) | 1 (≈ 1.69 µM) | 2 (≈ 3.39 µM) | 2 (≈ 3.39 µM) | 0.5 (≈ 0.847 µM) | 2 (≈ 3.39 µM) | 1 (≈ 1.69 µM) | 8 (≈ 13.5 µM) | 2 | 2 | 2 | 4 (≈ 6.77 µM) | 16 (≈ 27.1 µM) | 0.5 (≈ 0.847 µM) | 
C[C@H]1[C@H](NC(=O)/C(=N\OCCOc2ccc(NC(=N)N)cc2)c2csc(N)n2)C(=O)N1S(=O)(=O)O [Example 50, (2S,3S)-3-{[(2Z)-2-(2-Amino-1,3-thiazol-4-yl)-2-{[2-(4-carbamimidamidophenoxy)ethoxy]imino}acetyl]amino}-2-methyl-4-oxoazetidine-1-sulfonic acid] | 0.125 (≈ 0.237 µM) | 8 (≈ 15.2 µM) | 0.5 (≈ 0.95 µM) | 16 (≈ 30.4 µM) | 32 (≈ 60.8 µM) | 1 (≈ 1.9 µM) | 0.5 (≈ 0.95 µM) | 1 (≈ 1.9 µM) | 1 (≈ 1.9 µM) | 1 (≈ 1.9 µM) | 0.5 (≈ 0.95 µM) | 8 (≈ 15.2 µM) | 1 | 1 | 1 | 2 (≈ 3.8 µM) | 16 (≈ 30.4 µM) | 0.25 (≈ 0.475 µM) | 
C[C@H]1[C@H](NC(=O)/C(=N\OCCCOc2ccc(NC(=N)N)cc2)c2csc(N)n2)C(=O)N1S(=O)(=O)O [Example 51, (2S,3S)-3-{[(2Z)-2-(2-Amino-1,3-thiazol-4-yl)-2-{[3-(4-carbamimidamidophenoxy)propoxy]imino}acetyl]amino}-2-methyl-4-oxoazetidine-1-sulfonic acid] | 0.5 (≈ 0.925 µM) | 8 (≈ 14.8 µM) | 2 (≈ 3.7 µM) | 16 (≈ 29.6 µM) | 32 (≈ 59.2 µM) | 2 (≈ 3.7 µM) | 4 (≈ 7.4 µM) | 4 (≈ 7.4 µM) | 1 (≈ 1.85 µM) | 2 (≈ 3.7 µM) | 2 (≈ 3.7 µM) | 16 (≈ 29.6 µM) | 4 | 4 | 4 | 4 (≈ 7.4 µM) | 16 (≈ 29.6 µM) | 0.5 (≈ 0.925 µM) | 
C[C@H]1[C@H](NC(=O)/C(=N\OCCOc2ccc(C(=N)N)cc2)c2nsc(N)n2)C(=O)N1S(=O)(=O)O [Example 52] | 2 (≈ 3.9 µM) | 8 (≈ 15.6 µM) | 1 (≈ 1.95 µM) | 32 (≈ 62.4 µM) | 16 (≈ 31.2 µM) | 0.25 (≈ 0.488 µM) | 0.5 (≈ 0.976 µM) | 2 (≈ 3.9 µM) | 16 (≈ 31.2 µM) | 1 (≈ 1.95 µM) | 1 (≈ 1.95 µM) | 4 (≈ 7.8 µM) | 2 | 2 | 2 | 1 (≈ 1.95 µM) | 4 (≈ 7.8 µM) | 8 (≈ 15.6 µM) | 
C[C@H]1[C@H](NC(=O)/C(=N\OCc2ccc(C(=N)N)cc2)c2csc(N)n2)C(=O)N1S(=O)(=O)O [Example 55, (2S,3S)-3-{[(2Z)-2-(2-Amino-1,3-thiazol-4-yl)-2-{[(4-carbamimidoylbenzyl)oxy]imino}-acetyl]amino}-2-methyl-4-oxoazetidine-1-sulfonic acid] | 0.25 (≈ 0.519 µM) | 8 (≈ 16.6 µM) | 0.25 (≈ 0.519 µM) | 8 (≈ 16.6 µM) | 32 (≈ 66.5 µM) | 0.25 (≈ 0.519 µM) | 1 (≈ 2.08 µM) | 1 (≈ 2.08 µM) | 0.125 (≈ 0.26 µM) | 0.5 (≈ 1.04 µM) | 0.5 (≈ 1.04 µM) | 16 (≈ 33.2 µM) | 1 | 0.5 | 0.5 | 4 (≈ 8.31 µM) |  | 1 (≈ 2.08 µM) | 
C[C@H]1[C@H](NC(=O)/C(=N\OCCOc2ccc(C(=N)N)cc2CO)c2csc(N)n2)C(=O)N1S(=O)(=O)O [Example 59, (2S,3S)-3-{[(2Z)-2-(2-Amino-1,3-thiazol-4-yl)-2-({2-[4-carbamimidoyl-2-(hydroxymethyl)phenoxy]ethoxy}imino)acetyl]amino}-2-methyl-4-oxoazetidine-1-sulfonic acid] | 0.25 (≈ 0.462 µM) | 32 (≈ 59.1 µM) | 1 (≈ 1.85 µM) | 16 (≈ 29.5 µM) | 32 (≈ 59.1 µM) | 0.5 (≈ 0.923 µM) | 1 (≈ 1.85 µM) | 2 (≈ 3.69 µM) | 0.5 (≈ 0.923 µM) | 1 (≈ 1.85 µM) | 1 (≈ 1.85 µM) | 16 (≈ 29.5 µM) | 2 | 2 | 2 | 1 (≈ 1.85 µM) | 16 (≈ 29.5 µM) | 1 (≈ 1.85 µM) | 32 (≈ 59.1 µM)
C[C@H]1[C@H](NC(=O)/C(=N\OCCOc2ccc(C(=N)N)cc2COC=O)c2csc(N)n2)C(=O)N1S(=O)(=O)O [Example 60, (2S,3S)-3-({(2Z)-2-(2-Amino-1,3-thiazol-4-yl)-2-[(2-{4-carbamimidoyl-2-[(formyloxy)-methyl]phenoxy}ethoxy)imino]acetyl}amino)-2-methyl-4-oxoazetidine-1-sulfonic acid] | 0.25 (≈ 0.439 µM) | 16 (≈ 28.1 µM) | 0.5 (≈ 0.878 µM) | 16 (≈ 28.1 µM) | 32 (≈ 56.2 µM) | 1 (≈ 1.76 µM) | 1 (≈ 1.76 µM) | 2 (≈ 3.51 µM) | 1 (≈ 1.76 µM) | 2 (≈ 3.51 µM) | 1 (≈ 1.76 µM) | 16 (≈ 28.1 µM) | 2 | 2 | 2 | 4 (≈ 7.02 µM) | 16 (≈ 28.1 µM) | 1 (≈ 1.76 µM) | 32 (≈ 56.2 µM)
C[C@H]1[C@H](NC(=O)/C(=N\OCCOc2ccc(CC(=N)N)cc2)c2csc(N)n2)C(=O)N1S(=O)(=O)O [Example 62, (2S,3S)-3-{[(2Z)-2-({2-[4-(2-Amino-2-iminoethyl)phenoxy]ethoxy}imino)-2-(2-amino-1,3-thiazol-4-yl)acetyl]amino}-2-methyl-4-oxoazetidine-1-sulfonic acid] | 0.125 (≈ 0.238 µM) | 8 (≈ 15.2 µM) | 0.125 (≈ 0.238 µM) | 16 (≈ 30.4 µM) | 32 (≈ 60.9 µM) | 0.5 (≈ 0.951 µM) | 0.5 (≈ 0.951 µM) | 1 (≈ 1.9 µM) | 1 (≈ 1.9 µM) | 1 (≈ 1.9 µM) | 1 (≈ 1.9 µM) | 4 (≈ 7.61 µM) | 1 | 1 | 1 | 2 (≈ 3.81 µM) | 8 (≈ 15.2 µM) | 0.25 (≈ 0.476 µM) | 16 (≈ 30.4 µM)
